Measured values: US20090111895A1, “ENHANCED DIALDEHYDE DISINFECTANT AND STERILIZATION FORMULATIONS” (Ethicon, Inc., priority 2007, published 2009)

Experiments:
[1] = test system: Bacillus subtilis (ATCC 19659) spores; experiment: Bacillus subtilis sporicidal suspension test; assay type: cell-based; conditions: 20° C.; for enhancement of the sporicidal activity of ortho-phthalaldehyde (in words): Tables 2-4, 0.3 wt. % ortho-phthalaldehyde; for enhancement of the sporicidal activity of ortho-phthalaldehyde (in words) / sporicidal activity (in words): 5 hours; for sporicidal activity (in words): Table 1 results
Protocol: The phrase “Bacillus subtilis sporicidal suspension test”, when used in the appended claims means a determination of the sporicidal activity of a dialdehyde calculated as a log reduction of Bacillus subtilis bacterial spores. The test is performed according to Example 1 by treatment of Bacillus subtilis bacterial spores with a formulation consisting of the dialdehyde to be tested in water. The log10 reduction/mL is calculated from log N0−log Ni where N0 represent the number of organisms (cfu/mL) at time zero; and Ni represent the number of surviving organism (cfu/mL) at designated exposure time.
Several ortho-phthalaldehyde based germicidal solutions were tested to determine their effectiveness in killing Bacillus subtilis (ATCC 19659) spores using the Bacillus subtilis sporicidal suspension test.
For preparation of the inoculating spore test suspension, a 1 ml aliquot of the spore harvest was serial diluted with sterile water to produce a spore suspension of approximately 1×10^7 cfu ml.
Test solutions of ortho-phthalaldehyde/acetate were prepared by mixing acetate with CIDEX® OPA (which is a 0.55% solution of ortho-phthalaldehyde in water around pH 7.3, commercially available from Advanced Sterilization Products, a Johnson & Johnson Company) and diluted to levels indicated in Table 1.
The 1 ml aliquots of spore suspensions were exposed to 9 ml of ortho-phthalaldehyde solution at 20° C. The pHs of the tested solutions were adjusted to 7.3-7.5.
The experiments were performed using the suspension test, which involved adding 1 ml of 10^7 spores to sterile test tubes containing 9 ml of the challenge solution. The resulting test sample spore concentration was 10^6 cfu /ml. The tubes containing the test suspension/spores were vortex briefly to allow for mixing of the solution/spores. At the end of each of the appropriate exposure time at 20° C., 1 ml aliquots of the solution/spores mixture were aseptically transferred to sterile filtration units containing 0.45μ membrane filters with 100 ml of neutralizer solution (1% w/v glycine solution). The solutions were filtered and the membrane filters were rinsed again with 100 ml of neutralizers solution. The membrane filters were then individually transferred onto the surface of commercially available sterile Tryptic Soy Agar plates. The plates were incubated at 37° C. for 48 hours. After incubation, the number of survivors were determined for each test sample/exposure time.
The log10 reduction/mL is calculated from log N0−log Ni where N0 represent the number of organism (cfu/mL) at time zero; and Ni represent the number of surviving organism (cfu/mL) at designated exposure time.
In addition to acetate, several mixtures of ortho-phthalaldehyde with different carboxylates such as chloroacetate and propionate were also tested using the protocol described above in Example 1.
Benzoate was evaluated for its ability to enhance the sporicidal activity of ortho-phthalaldehyde using the protocol described above in Example 1. The pHs of all solutions were adjusted to neutral, 7.3-7.5.
Spore suspension tests with five germicide solutions containing 2.4% glutaraldehyde with various amounts of acetate ranging from 0 to 7% were conducted at 20° C. for 4 hours with Bacillus using the protocol described above in Example 1. The pHs of the solutions were adjusted to 8.2-8.9, which is the typical pH range for glutaraldehyde disinfecting solutions.

spores of B. subtilis = conditions: cited from earlier work
Bacillus subtilis spores = experiment: Time kill assay; assay type: cell-based; conditions: Table 6; 0.3% ortho-phthalaldehyde, 20° C.
Protocol: Test solutions were prepared by mixing acetate with ortho-phthalaldehyde (if applicable) and the solutions were adjusted to pH 7.2. The solutions were then challenged with 10^6 per ml of Bacillus subtilis spores at 20° C. (room temperature). At each predetermined exposure time, samples from each of the test solutions were tested/assayed for survivors.

| Compound | enhancement of the sporicidal activity of ortho-phthalaldehyde (in words) [1] | sporicidal activity (in words) [1] | further results |
| --- | --- | --- | --- |
| O=C(O)c1ccccc1 [benzoate] | enhances ortho-phthalaldehyde sporicidal efficacy when the benzoate concentration is above about 3% | – | – |
| CCC(=O)O [propionate] | significantly enhance the sporicidal activity of ortho-phthalaldehyde | – | – |
| O=Cc1ccccc1C=O [ortho-phthalaldehyde, reference compound] | – | does not have significant sporicidal activity | activity against spores of B. subtilis (in words) (spores of B. subtilis): relatively ineffective against spores of B. subtilis |
| O=C(O)CCl [chloroacetate] | significantly enhance the sporicidal activity of ortho-phthalaldehyde | – | – |
| CC(=O)[O-].[K+] [acetate, potassium acetate] | – | does not have significant sporicidal activity | enhancement of the sporicidal activity of glutaraldehyde (in words) ([1]; Table 5, 2.4% glutaraldehyde, 4 hours): the sporicidal activity of glutaraldehyde is significantly enhanced; enhancement of the sporicidal activity of ortho-phthalaldehyde (in words) (Bacillus subtilis spores): the sporicidal activity of ortho-phthalaldehyde is significantly enhanced |
